Patent US20220211662A1, “METHOD OF TREATING CANCER BY ADMINISTERING AN EPIGALLOCATECHIN GALLATE COMBINED WITH TYROSINE KINASE INHIBITOR” (Yunnan Daye Dihong Biotechnology Co., Ltd., priority 2019, published 2022)

Columns and labels:
[1] = system: NCI-H1666 cells; assay: MTT cell viability, NCI-H1666 cells; format: cell-based, human; conditions: 24 hours
Description: Detection Principle: MTT method to detect cell viability
A container is best wrapped with aluminum foil paper.
Otherwise, it is difficult to reflect the real situation. […] A sample is prevented from being volatilized.

[2] = system: A431 transplanted tumor; assay: A431 heterotransplanted tumor model in nude mouse

Row | SMILES | growth of NCI-H1666 cells ([1]; in the presence of EGF) | survival rate / growth of NCI-H1666 cells ([1]; without EGF) | tumor volume growth ([2]; A431 transplanted tumor, combined use compared with Gefitinib alone treatment group) | body weight of A431 tumor-bearing mouse ([2]; compared with control group)
1 | COc1cc2ncnc(Nc3ccc(F)c(Cl)c3)c2cc1OCCCN1CCOCC1 [Gefitinib] | does not have a significant inhibitory effect | significant inhibitory effect | better inhibitory effect | –
2 | O=C(O[C@@H]1Cc2c(O)cc(O)cc2O[C@@H]1c1cc(O)c(O)c(O)c1)c1cc(O)c(O)c(O)c1 [EGCG, EPIGALLOCATECHIN GALLATE] | – | – | – | promote the weight increase
